Patent US20090208620A1, “Alimentary Compositions and Methods For Metabolic Modulation” (VDF FUTURECEUTICALS, INC., priority 2003, published 2009)
“And” between values parts separate entries of the source, which are not always exact repeats. Equal entries are not always repeated.

How the values were obtained:
Type in all cases: cell-based, mouse
activated Akt = experiment: Western immunoblot for activated (phospho-Ser473) Akt in muscle cells; settings: cells treated 30 minutes at 37° C
Procedure: (§1) The levels of Glut-4, activated AMPK and activated Akt were measured in mouse muscle cells C2C12 (from ATTC) and in primary culture of human skeletal muscle cells (Clonetics, Inc.) using Western immunoblotting. C2C12 cells were plated at 1.5×1-exp5 cells per mL/well (12-well plate) in standard cell culture medium (DMEM supplemented with 10% fetal bovine serum (FBS), 25 mM glucose, 20 mM Hepes, 4 mM glutamine and 2 mM sodium pyruvate. 48 hrs after the plating, medium was changed to differentiation medium (DMEM supplemented with 5 mM of glucose and 0.5% of FBS) for next 3-4 days to stimulate the formation of myotubes. Three hours before the treatment with selected agents, cells were washed with PBS and transferred to PBS supplemented with 5 mM of glucose.
(§2) Human skeletal muscle cells (HSKM) were cultured in SKBM-2 mediums provided by Clonetics. 48 hrs after cell plating, medium was changed to SKBM medium to stimulate differentiation of the cells to myotubes. When differentiated, the myotubes were transferred to PBS supplemented with 5 mM glucose for three hrs before the treatment.
(§3) Analysis of C2C12 cells for the level of activated AMPK, Akt and the level of GLUT-4 was performed in the same experimental system. The cells were treated for 30 minutes at 37° C. […] Subsequently, 20 μg per sample of sample protein was used for Western analysis using NuPage 10% Bis/Tris gels (Invitrogen). After exposure of membranes to primary and secondary antibodies AMPK, AKT or Glut-4 was detected using ECL-Plus (Amersham) following producer's instruction. Chemilumiscent signals were detected by using ChemiDoc system from Biorad. Intensity of detected signals were analyzed and measured using Quantity One software (Biorad). Alternatively, the level of phosphorylated AMPK was detected using ECL kit from Amersham and short exposure to Kodak films.
(§4) Experimental setup: Cell Culture was followed by treatment with selected contemplated compounds, which was followed by cell lysis and western blot analysis for AMPK, Akt, GLUT4, total AMPK, and total Akt. Signals were acquired accordingly.

activated AMPK = experiment: Western immunoblot for activated (phospho-Thr172) AMPK in muscle cells; settings: cells treated 30 minutes at 37° C
Procedure: as §1, §2, §3, §4

GLUT-4 = experiment: Western immunoblot for GLUT-4 protein level in C2C12 cells
Procedure: as §1
Analysis of C2C12 cells for the level of activated AMPK, Akt and the level of GLUT-4 was performed in the same experimental system. The cells were treated for 30 minutes at 37° C. After the treatment, the cells were washed with ice-cold PBS and lysed with 80 μl of lysis buffer/well (M-PER buffer from Pierce supplemented with protease and phosphatase inhibitor mix (Calbiochem) for 10 minutes on ice. Next, the plates were transferred to −20° C. to improve the lysis of the cells. Next cells were sonicated for 5 minutes and lysate was transferred to Eppendorf tubes and centrifuged at 14,000 rpm for 10 minutes. Supernatants were collected in fresh Eppendorf tubes and kept on ice to measure the amount of total proteins. 3 μl of each lysate was used to measure the protein concentration using standard Bradford method (Biorad). Subsequently, 20 μg per sample of sample protein was used for Western analysis using NuPage 10% Bis/Tris gels (Invitrogen). After exposure of membranes to primary and secondary antibodies AMPK, AKT or Glut-4 was detected using ECL-Plus (Amersham) following producer's instruction. Chemilumiscent signals were detected by using ChemiDoc system from Biorad. Intensity of detected signals were analyzed and measured using Quantity One software (Biorad). Alternatively, the level of phosphorylated AMPK was detected using ECL kit from Amersham and short exposure to Kodak films.
Experimental setup: Cell Culture was followed by treatment with selected contemplated compounds, which was followed by cell lysis and western blot analysis for AMPK, Akt, GLUT4, total AMPK, and total Akt. Signals were acquired accordingly. Primary antibodies used in these studies are the following: Anti-phospho-AMPK (Thr172), mouse, rabbit IgG, from Cell Signaling, #2531; Anti-phospho-Akt (Ser473), mouse, rabbit IgG, Cell Signaling, #9271; Anti-Glut-4, mouse, rabbit IgG, Calbiochem, #400064; Anti-AMPK (total), mouse, rabbit IgG, Cell Signaling, #2532; Anti-Akt (total), mouse, rabbit IgG, Cell Signaling, #9272.
The effects of kinetin, N^2-Acetyl-Guanosine and N^2-Acetyl-Guanine on GLUT-4 protein level in C2C12 cells were investigated following the same experimental design as described for AMPK and AKT. Anti-Glut-4 antibody used in this study was from Calbiochem. […] Table 3 refers to multiple independent experiments where multiple identical concentrations for the same reagents are indicated.

OC[C@H]1O[C@@H](n2cnc3c(NCc4ccco4)ncnc32)[C@H](O)[C@@H]1O [Kinetin Riboside]
FOLD AKT ACTIVATION (OVER CONTROL) (activated Akt; 0.8 microM): 3.71 fold
FOLD AKT ACTIVATION (OVER CONTROL) (activated Akt; 2.0 microM): 5.14 fold
FOLD AKT ACTIVATION (OVER CONTROL) (activated Akt; 5.0 microM): 3.32 fold
FOLD AMPK ACTIVATION (OVER CONTROL) (activated AMPK; 3.0 microM): 12.00 fold

NC(=O)c1ncn([C@@H]2O[C@H](CO)[C@@H](O)[C@H]2O)c1N [AICAR, reference compound]
FOLD AKT ACTIVATION (OVER CONTROL) (activated Akt; 50.0 microM): 2.20 fold
FOLD AKT ACTIVATION (OVER CONTROL) (activated Akt; 500.0 microM): 5.45 fold

CN(CCOc1ccc(CC2SC(=O)NC2=O)cc1)c1ccccn1 (stereo not shown) [Rosiglitazone, reference compound]
FOLD CHANGE IN GLUT-4 LEVEL (OVER CONTROL) (GLUT-4; 9.0 microM): 3.61 fold
FOLD CHANGE IN GLUT-4 LEVEL (OVER CONTROL) (GLUT-4; 27.0 microM): 3.19 fold
FOLD AKT ACTIVATION (OVER CONTROL) (activated Akt; 1.0 microM): 2.83 fold
FOLD AKT ACTIVATION (OVER CONTROL) (activated Akt; 9.0 microM): 1.78 fold
FOLD AKT ACTIVATION (OVER CONTROL) (activated Akt; 27.0 microM): 0.71 fold
FOLD AMPK ACTIVATION (OVER CONTROL) (activated AMPK; 3.0 microM): 3.50 fold

CC(=O)Nc1ccn([C@@H]2O[C@H](CO)[C@@H](O)[C@H]2O)c(=O)n1 [N^4-Acetyl-Cytidine]
FOLD AKT ACTIVATION (OVER CONTROL) (activated Akt; 0.8 microM): 2.45 fold
FOLD AKT ACTIVATION (OVER CONTROL) (activated Akt; 2.0 microM): 1.46 fold and 1.50 fold
FOLD AKT ACTIVATION (OVER CONTROL) (activated Akt; 5.0 microM): 1.64 fold and 1.36 fold

Insulin
FOLD AKT ACTIVATION (OVER CONTROL) (activated Akt; 0.10 nanoM): 1.75 fold
FOLD AKT ACTIVATION (OVER CONTROL) (activated Akt; 25.0 nanoM): 3.40 fold
FOLD AKT ACTIVATION (OVER CONTROL) (activated Akt; 50.0 nanoM): 3.28 fold

C/C(=C\CNc1ncnc2nc[nH]c12)CO [Trans-Zeatin]
FOLD AKT ACTIVATION (OVER CONTROL) (activated Akt; 1.0 microM): 0.90 fold
FOLD AKT ACTIVATION (OVER CONTROL) (activated Akt; 10.0 microM): 0.86 fold
FOLD AMPK ACTIVATION (OVER CONTROL) (activated AMPK; 1.0 microM): 2.33 fold
FOLD AMPK ACTIVATION (OVER CONTROL) (activated AMPK; 10.0 microM): 4.27 fold

c1ccc(CNc2ncnc3nc[nH]c23)cc1 [Benzyl-Adenine]
FOLD AMPK ACTIVATION (OVER CONTROL) (activated AMPK; 0.5 microM): 2.18 fold
FOLD AMPK ACTIVATION (OVER CONTROL) (activated AMPK; 5.0 microM): 2.70 fold
FOLD AMPK ACTIVATION (OVER CONTROL) (activated AMPK; 50.0 microM): 2.92 fold
